{
  "source": "patent US20100197587A1",
  "about": "“USE OF A PEPTIDE AS A THERAPEUTIC AGENT” (priority 2007, published 2010)",
  "key": {"[1]": {"test_system": "RAW 264.7 (Mouse leukaemic monocyte macrophage cell line) cells", "assay": "Phagocytosis assay (Fluorescein-labeled Escherichia coli, flow cytometry)", "format": "cell-based", "details": "10 micrograms per ml; RAW 264.7, Fluorescein-labeled E. coli"}, "spleen cells": {"test_system": "spleen cells", "assay": "Th1/Th2 cytokine profiling assay (Ovalbumin-restimulated spleen cells)", "details": "10 micrograms per ml; Ovalbumin restimulation, 72 hours, supernatant", "from_the_text": "The Balb/c mice (originated in 1923, it is a popular strain and is used in many different research disciplines. Also classified as an inbred from the production of 20 or more successive brother-sister matings, the Balb/c mouse is albino and small in size) were immunized on Days 1, 15, and 29 with Ovalbumin (Ovalbumin is the main protein found in egg white, commonly used to stimulate an immunological reaction in test animals) in PBS (5 micrograms/injection). On day 50, spleens of the mice were harvested (3 weeks after last boost with Ovalbumin). […] Thereafter, additional Ovalbumin was added to the cells at 10 micrograms/ml for in vitro restimulation of the cells. 72 hours later, cell supernatants were harvested and assayed using the Becton Dickinson Mouse Th1/Th2 Cytokine CBA Kit. This kit can be used to measure Interleukin-2 (IL-2), Interleukin-4 (IL-4), Interleukin-5 (IL-5), Interferon-γ (IFN-γ), and Tumor Necrosis Factor-α (TNF-α) protein levels in a single sample."}, "HCMV strain AD169": {"test_system": "HCMV strain AD169", "assay": "HCMV plaque formation assay in MRC-5 cells", "details": "for inhibition of HCMV plaque formation as compared to the virus control experiment: 10 micrograms per ml, 7-10 days"}, "[2]": {"test_system": "hepatitis B virus (HBV) ayw strain", "assay": "HBV assay in HepG2-2.2.15 cells (secreted HBV DNA by TaqMan PCR)", "format": "cell-based", "details": "10 micrograms per ml; HepG2-2.2.15, six days, HBV DNA in supernatant"}, "HIV-1IIIB": {"test_system": "HIV-1IIIB", "assay": "HIV-1 antiviral assay in CEM-SS cells (MTS readout)", "details": "positive controls"}},
  "note": "No end group written: not given here.",
  "data": [
    {"compound": "His-Ala-Asp-Gly-Ser-Phe-Ser-Asp-Glu-Met-Asn-Thr-Ile-Leu-Asp-Asn-Leu-Ala-Ala-Arg-Asp-Phe-Ile-Asn-Trp-Leu-Ile-Gln-Thr-Lys-Ile-Thr-Asp-OH [Peptide 2]", "values": [
      {"measurement": "inhibitory effects on the phagocytic activity of murine macrophages", "setting": "[1]", "value": "no inhibitory effects"},
      {"measurement": "IFNγ spleen cells; TH1 response (% of control)", "setting": "spleen cells", "value": "132.7 % of control"},
      {"measurement": "IL-2 spleen cells (% of control)", "setting": "spleen cells", "value": "183.3 % of control"},
      {"measurement": "IL-4 spleen cells; TH2 response (% of control)", "setting": "spleen cells", "value": "104.4 % of control"},
      {"measurement": "IL-5 spleen cells; TH2 response (% of control)", "setting": "spleen cells", "value": "108.4 % of control"},
      {"measurement": "TNF-a spleen cells; TH1 response (% of control)", "setting": "spleen cells", "value": "143.7 % of control"},
      {"measurement": "inhibition of HCMV plaque formation as compared to the virus control experiment", "setting": "HCMV strain AD169", "value": 18.8, "unit": "%"},
      {"measurement": "inhibition of HBV replication as compared to the virus control infection", "setting": "[2]", "value": 59.2, "unit": "%"}
    ]},
    {"compound": "CC(C)(C)NC(=O)[C@@H]1CN(Cc2cccnc2)CCN1C[C@@H](O)C[C@@H](Cc1ccccc1)C(=O)N[C@H]1c2ccccc2C[C@H]1O", "note": "[indinavir]", "values": [
      {"measurement": "antiviral activity of positive control compounds (HIV-1)", "setting": "HIV-1IIIB", "value": "expected levels of antiviral activity"}
    ]},
    {"compound": "Nc1nc(O)c2ncn(COC(CO)CO)c2n1", "note": "[Ganciclovir, reference compound]", "values": [
      {"measurement": "antiviral activity of positive control compound (HCMV)", "setting": "HCMV strain AD169; positive control, HCMV AD169", "value": "expected levels of antiviral activity"}
    ]},
    {"compound": "Cc1cn([C@H]2C[C@H](N=[N+]=[N-])[C@@H](CO)O2)c(=O)[nH]c1=O", "note": "[AZT]", "values": [
      {"measurement": "antiviral activity of positive control compounds (HIV-1)", "setting": "HIV-1IIIB", "value": "expected levels of antiviral activity"}
    ]},
    {"compound": "His-Ala-Asp-Gly-Ser-Phe-Ser-Asp-Glu-Met-Asn-Thr-Ile-Leu-Asp-Asn-Leu-Ala-Ala-Arg-Asp-Phe-Ile-Asn-Trp-Leu-Ile-Gln-Thr-Lys-Ile-Thr-Asp-Arg-OH (HADGSFSDEMNTILDNLAARDFINWLIQTKITDR-OH) [Peptide 1]", "values": [
      {"measurement": "increase of the phagocytic activity of murine macrophages", "setting": "[1]", "value": 22.9, "unit": "%"},
      {"measurement": "IFNγ spleen cells; TH1 response (% of control)", "setting": "spleen cells", "value": "132.7 % of control"},
      {"measurement": "IL-2 spleen cells (% of control)", "setting": "spleen cells", "value": "0.0 % of control"},
      {"measurement": "IL-4 spleen cells; TH2 response (% of control)", "setting": "spleen cells", "value": "0.0 % of control"},
      {"measurement": "IL-5 spleen cells; TH2 response (% of control)", "setting": "spleen cells", "value": "48.2 % of control"},
      {"measurement": "TNF-a spleen cells; TH1 response (% of control)", "setting": "spleen cells", "value": "102.2 % of control"},
      {"measurement": "inhibition of HCMV plaque formation as compared to the virus control experiment", "setting": "HCMV strain AD169", "value": "did not inhibit"},
      {"measurement": "inhibition of HBV replication as compared to the virus control infection", "setting": "[2]", "value": 59.7, "unit": "%"}
    ]}
  ]
}
